In US9278958B2, “Anti-cancer compounds” (KATHOLIEKE UNIVERSITEIT LEUVEN, priority 2012, dated 2016):
Read-outs that look alike come from different tables or passages of the source. Values belong to the molecule of their own block, whether it stands above or below them.

Assays:
[1] = test system: RNA synthesis in Raji cells; assay: Antimetabolic activity assay, [5-3H]uridine incorporation (RNA synthesis), Raji; format: cell-based; details: Homo sapiens, incorporation into TCA-insoluble material
Protocol: [The procedure below names another cell line; the source lists this cell line under the same test.] (§1) Radiolabeled precursors of DNA synthesis ([^3H-methyl]dThd), RNA synthesis ([5-^3H]Urd), and protein synthesis ([4,5-^3H]leu) were added to 10^5 CEM cell cultures in the 200 μl-wells of a microtiter plate at 1 μCi for each precursor in the presence of varying concentrations of the test compounds (5-fold dilution series). The cells were allowed to proliferate for 20 hrs at 37° C. in a humidified, CO2-controlled atmosphere. At the end of the incubation period, the contents of the wells were brought onto 25-mm glass fiber filters and further processed for measurement of acid-insoluble radioactivity.

[2] = test system: Caki-1 kidney carcinoma cells; assay: Cytostatic assay, Caki-1; format: cell-based; details: Homo sapiens, Table 3
Summary of the method: (§2)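 Cells (5-7.5×10^4/well) + test compound; growth 48–96 h (line-dependent), 37° C, humidified CO2 atmosphere; endpoint Coulter count.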

[3] = test system: FM3A mammary carcinoma cells; assay: Cytostatic assay, FM3A; format: cell-based, murine; details: Mus musculus, Table 3
Summary of the method: as §2

[4] = test system: 22Rv1 (UZ) prostate cancer cells; assay: Cytostatic assay, 22Rv1 (UZ); format: cell-based; details: Homo sapiens, Table 4
Summary of the method: as §2

[5] = test system: HOS CD4+ osteosarcoma cells; assay: Cytostatic assay, HOS CD4+; format: cell-based; details: Homo sapiens; Table 3
Protocol: (§3) To each well of a 96-well microtiter plate were added 5-7.5×10^4 cells and a given amount of the test compound. The cells were allowed to proliferate for 48 h to 96 h (depending on the nature of the cell line) at 37° C. in a humidified CO2-controlled atmosphere. At the end of the incubation period, the cells were counted in a Coulter Counter (Coulter Electronics Ltd, Harpenden Herts, United Kingdom).

MT-2 cells = assay: Cytostatic assay, MT-2; format: cell-based; details: Homo sapiens, MT2; Table 2
Summary of the method: as §2

MT-4 cells = assay: Cytostatic assay, MT-4; format: cell-based; details: Homo sapiens, MT4; Table 2
Summary of the method: as §2

[6] = test system: THP-1, human monocytic cells; assay: Cytostatic assay, THP-1; format: cell-based; details: Table 2
Summary of the method: as §2

Sup T1 cells = assay: Cytostatic assay, Sup T1; format: cell-based; details: Homo sapiens, Table 2, read-out: Cytostatic activity (μM) Sup T 1
Summary of the method: as §2

[7] = test system: LNCaP (UZ) prostate cancer cells; assay: Cytostatic assay, LNCaP (UZ); format: cell-based; details: Homo sapiens, Table 4
Summary of the method: as §2

[8] = test system: MCF-7 mammary carcinoma cells; assay: Cytostatic assay, MCF-7; format: cell-based; details: Homo sapiens, MCF7; Table 3
Summary of the method: as §2

[9] = test system: DNA synthesis in Raji cells; assay: Antimetabolic activity assay, [CH3-3H]dThd incorporation (DNA synthesis), Raji; format: cell-based; details: Homo sapiens, incorporation into TCA-insoluble material
Protocol: [The procedure below names another cell line; the source lists this cell line under the same test.] as §1

[10] = test system: OST TK- osteosarcoma cells; assay: Cytostatic assay, OST TK-; format: cell-based; details: Homo sapiens; Table 3
Summary of the method: as §2

[11] = test system: HL60, human leukemia cells; assay: Cytostatic assay, HL-60; format: cell-based; details: Table 2
Summary of the method: as §2

PLC/PRF/5 hepatoma cells = assay: Cytostatic assay, PLC/PRF/5; format: cell-based; details: Homo sapiens, Table 4
Summary of the method: as §2

BPH-1 (UZ) = assay: Cytostatic assay, BPH-1 (UZ); format: cell-based; details: Homo sapiens, Table 4
Summary of the method: as §2

[12] = test system: 293T embryonic kidney cells; assay: Cytostatic assay, 293T; format: cell-based; details: Homo sapiens, HEK-293T; Table 3
Summary of the method: as §2

[13] = test system: PNT1A (UZ) prostate cells; assay: Cytostatic assay, PNT1A (UZ); format: cell-based; details: Homo sapiens, Table 4
Summary of the method: as §2

C8166 cells = assay: Cytostatic assay, C8166; format: cell-based; details: Homo sapiens, Table 2
Summary of the method: as §2

[14] = test system: RNA synthesis in CEM cells; assay: Antimetabolic activity assay, [5-3H]uridine incorporation (RNA synthesis), CEM; format: cell-based; details: Homo sapiens, CCRF-CEM, incorporation into TCA-insoluble material
Protocol: as §1

[15] = test system: DNA synthesis in CEM cells; assay: Antimetabolic activity assay, [CH3-3H]dThd incorporation (DNA synthesis), CEM; format: cell-based; details: Homo sapiens, CCRF-CEM, incorporation into TCA-insoluble material
Protocol: as §1

CEM cells = assay: Cytostatic assay, CEM; format: cell-based; details: Homo sapiens, CCRF-CEM
Summary of the method: as §2

Molt4/C8 cells = assay: Cytostatic assay, Molt4/C8; format: cell-based; details: Table 2
Summary of the method: as §2

[16] = test system: BAEC aortic endothelial cells; assay: Cytostatic assay, BAEC; format: cell-based, bovine; details: Bos taurus, Table 3
Summary of the method: as §2

[17] = test system: HT29 colorectal carcinoma cells; assay: Cytostatic assay, HT29; format: cell-based; details: Homo sapiens, HT-29; Table 3
Summary of the method: as §2

Huh-7 hepatoma cells = assay: Cytostatic assay, Huh-7; format: cell-based; details: Homo sapiens, Table 4
Summary of the method: as §2

[18] = test system: DU145 (UZ) prostate cancer cells; assay: Cytostatic assay, DU145 (UZ); format: cell-based; details: Homo sapiens, DU-145; Table 4
Summary of the method: as §2

[19] = test system: HEL embryonic lung fibroblast cells; assay: Cytostatic assay, HEL; format: cell-based; details: Homo sapiens, Table 3
Summary of the method: as §2

U87 glioma cells = assay: Cytostatic assay, U87; format: cell-based; details: Homo sapiens, U-87 MG; Table 3
Summary of the method: as §2

[20] = test system: PC-3 (UZ) prostate cancer cells; assay: Cytostatic assay, PC-3 (UZ); format: cell-based; details: Table 4
Summary of the method: as §2

[21] = test system: protein synthesis in CEM cells; assay: Antimetabolic activity assay, [4,5-3H]leucine incorporation (protein synthesis), CEM; format: cell-based; details: Homo sapiens, CCRF-CEM, incorporation into TCA-insoluble material
Protocol: as §1

[22] = test system: PC3 (rega) prostate cancer cells; assay: Cytostatic assay, PC3 (rega); format: cell-based; details: Table 4
Summary of the method: as §2

HUT-78 cells = assay: Cytostatic assay, HUT-78; format: cell-based; details: Homo sapiens, HuT78; Table 2
Summary of the method: as §2

L1210 cells = assay: Cytostatic assay, L1210; format: cell-based; details: Mus musculus, Table 2
Summary of the method: as §2

[23] = test system: U87 CD4+/CXCR4+/CCR5+ glioma cells; assay: Cytostatic assay, U87 CD4+/CXCR4+/CCR5+; format: cell-based; details: Homo sapiens, Glioma cell; Table 3
Protocol: as §3

[24] = test system: Caki-2 kidney carcinoma cells; assay: Cytostatic assay, Caki-2; format: cell-based; details: Homo sapiens, Table 3
Summary of the method: as §2

[25] = test system: Raji, human B-lymphoma cells; assay: Cytostatic assay, Raji; format: cell-based; details: Table 2
Summary of the method: as §2

[26] = test system: broad variety of tumor cell lines; assay: Cytostatic assays, summary over the panel of cell lines (Tables 2-4); format: cell-based
Protocol: as §3

[27] = test system: Daudi, human B-lymphoma cells; assay: Cytostatic assay, Daudi; format: cell-based; details: Table 2
Protocol: as §3

[28] = test system: HeLa cervix carcinoma cells; assay: Cytostatic assay, HeLa; format: cell-based, human; details: Homo sapiens; Table 3; read-out: Cytostatic activity (μM) Hela
Summary of the method: as §2

[29] = test system: protein synthesis in Raji cells; assay: Antimetabolic activity assay, [4,5-3H]leucine incorporation (protein synthesis), Raji; format: cell-based; details: Homo sapiens, incorporation into TCA-insoluble material
Protocol: [The procedure below names another cell line; the source lists this cell line under the same test.] as §1

[30] = test system: U937, human monocytic cells; assay: Cytostatic assay, U937; format: cell-based; details: U-937, Table 2
Summary of the method: as §2

HepG2C3A hepatoma cells = assay: Cytostatic assay, HepG2C3A; format: cell-based; details: Homo sapiens, HepG2/C3A; Table 4
Summary of the method: as §2

[31] = Table 1a, read-out: IC50 μM (CEM)
[32] = Table 2, read-out: Cytostatic activity (μM) CEM
[33] = Homo sapiens, HuT78, range for the seven compounds, MT-4 and HUT-78 cells, read-out: IC50 range, cytostatic activity against MT-4 and HUT-78 cells
[34] = range for the seven compounds against the 5 tumor cell lines, read-out: IC50 range, cytostatic activity against CEM, Molt4/C8, Sup T1, MT-2 and C8166 cells

IC50 [1]: > 100 µM
IC50 [2]: 4.5 ± 3.8 µM
IC50 [3]: 49 ± 9.9 µM
IC50 [4]: 21 ± 17 µM
IC50 [5]: 67 ± 6.4 µM
IC50 (MT-2 cells): 1.8 ± 0.64 µM
IC50 [6]: 32 ± 4.9 µM
IC50 (Sup T1 cells): 0.95 ± 0.64 µM
IC50 [7]: 0.35 ± 0.067 µM
IC50 [8]: 79 ± 30 µM
IC50 [9]: > 100 µM
IC50 [10]: 10 ± 6.9 µM
IC50 [11]: 4.9 ± 5.4 µM
IC50 (PLC/PRF/5 hepatoma cells): 62 ± 21 µM
IC50 (BPH-1 (UZ)): > 100 µM
IC50 [13]: > 100 µM
IC50 (C8166 cells): 1.6 ± 0.95 µM
IC50 [14]: 1 ± 0.5 µM
IC50 [15]: 3.1 ± 0.3 µM
IC50 (CEM cells; [31]): 1.5 µM
IC50 (CEM cells; [32]): 1.5 ± 0.28 µM
IC50 (Molt4/C8 cells): 0.27 ± 0.27 µM
IC50 [16]: 44 ± 22 µM
IC50 [17]: > 100 µM
IC50 (Huh-7 hepatoma cells): 4.6 ± 0.28 µM
IC50 [18]: 14 ± 1.2 µM
IC50 (U87 glioma cells): > 100 µM
IC50 [20]: 1.3 ± 0.071 µM
IC50 [21]: 1.9 ± 1.6 µM
IC50 [22]: 0.57 ± 0.3 µM
IC50 (HUT-78 cells): 39 ± 27 µM
IC50 (L1210 cells): 248 ± 40 µM
IC50 [23]: 48 ± 6.4 µM
IC50 [24]: ≥ 200 µM
IC50 [25]: 93 ± 11 µM
IC50 [26, 33]: 8.5 to 60 µM
IC50 [26, 34]: 0.22 to 3.4 µM
IC50 [27]: 61 ± 1.4 µM
IC50 [28]: 105 ± 68 µM
IC50 [29]: > 100 µM
IC50 [30]: 40 ± 2.8 µM
IC50 (HepG2C3A hepatoma cells): 13 ± 0.71 µM
SMILES: COC(=O)c1cc(CCc2ccc(OC)cc2C)sc1N [TR583, 2-Amino-5-[2-(4-methoxy-2-methyl-phenyl)-ethyl]-thiophene-3-carboxylic acid methyl ester]
IC50 (MT-4 cells): 60 ± 0.71 µM
IC50 [12]: 84 ± 23 µM
IC50 [19]: 87 ± 19 µM

IC50 [1]: 27 ± 14 µM
IC50 [2]: 2.3 ± 0.14 µM
IC50 [3]: 50 ± 2.8 µM
IC50 [4]: 22 ± 9.2 µM
IC50 [5]: 50 ± 12 µM
IC50 (MT-2 cells): 0.57 ± 0.078 µM
IC50 [6]: 41 ± 2.8 µM
IC50 (Sup T1 cells): 1.3 ± 0.21 µM
IC50 [7]: 0.38 ± 0.1 µM
IC50 [8]: 25 ± 11 µM
IC50 [9]: 39 ± 33 µM
IC50 [10]: 8.2 ± 6.9 µM
IC50 [11]: 6.1 ± 8.6 µM
IC50 (PLC/PRF/5 hepatoma cells): 28 ± 2.8 µM
IC50 (BPH-1 (UZ)): 46 ± 4.9 µM
IC50 [13]: 40 ± 7.1 µM
IC50 (C8166 cells): 2.2 ± 0.35 µM
IC50 [14]: 1.9 ± 0.7 µM
IC50 [15]: 3.2 ± 1.2 µM
IC50 (CEM cells; [31]): 1.7 µM
IC50 (CEM cells; [32]): 1.7 ± 1.1 µM
IC50 (Molt4/C8 cells): 0.56 ± 0.57 µM
IC50 [16]: 27 ± 7.1 µM
IC50 [17]: 30 ± 5.7 µM
IC50 (Huh-7 hepatoma cells): 1.3 ± 0.28 µM
IC50 [18]: 15 ± 8.5 µM
IC50 (U87 glioma cells): 51 ± 2.1 µM
IC50 [20]: 0.6 ± 0.071 µM
IC50 [21]: 0.66 ± 0.13 µM
IC50 [22]: 0.25 ± 0.27 µM
IC50 (HUT-78 cells): 38 ± 8.5 µM
IC50 (L1210 cells): 41 ± 2 µM
IC50 [23]: 51 ± 4.9 µM
IC50 [24]: 45 ± 7.1 µM
IC50 [25]: 46 ± 1.4 µM
IC50 [26, 33]: 8.5 to 60 µM
IC50 [26, 34]: 0.22 to 3.4 µM
IC50 [27]: 37 ± 3.5 µM
IC50 [28]: 36 ± 7 µM
IC50 [29]: 43 ± 7 µM
IC50 [30]: 42 ± 3.5 µM
IC50 (HepG2C3A hepatoma cells): 8.1 ± 0.71 µM
SMILES: COC(=O)c1cc(CCc2ccsc2)sc1N [TR595, 2-Amino-5-(2-thiophen-3-yl-ethyl)-thiophene-3-carboxylic acid methyl ester]
IC50 (MT-4 cells): 30 ± 4.9 µM
IC50 [12]: 44 ± 5.7 µM
IC50 [19]: 30 ± 13 µM
